Assay results taken from patent publication US20260158017A1, “KIF18A INHIBITOR” (WIGEN BIOMEDICINE TECHNOLOGY (SHANGHAI) CO., LTD., priority 2021, published 2026).

Target: T1, Recombinant human KIF18A (1-467His-tagged) protein (Homo sapiens, UniProt Q8NI77)
T1 construct: Recombinant human KIF18A (1-467His-tagged) protein; His; made in house
Assay: KIF18A enzyme assay (microtubule-stimulated ATPase activity, ADP-Glo)
Format: biochemical
Settings: 30 nM KIF18A, 75 μM ATP, 30 μg/mL pig microtubules; read-out: Inhibitory activity against KIF18A IC50
How it was run: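 Buffer 15 mM Tris pH 7.5, 10 mM MgCl2, 0.01% Pluronic F-68, 1 μM paclitaxel, 30 μg/mL pig microtubules; reactions at room temperature. IC50 from inhibition relative to DMSO.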

T1 sequence (Q8NI77 1-467): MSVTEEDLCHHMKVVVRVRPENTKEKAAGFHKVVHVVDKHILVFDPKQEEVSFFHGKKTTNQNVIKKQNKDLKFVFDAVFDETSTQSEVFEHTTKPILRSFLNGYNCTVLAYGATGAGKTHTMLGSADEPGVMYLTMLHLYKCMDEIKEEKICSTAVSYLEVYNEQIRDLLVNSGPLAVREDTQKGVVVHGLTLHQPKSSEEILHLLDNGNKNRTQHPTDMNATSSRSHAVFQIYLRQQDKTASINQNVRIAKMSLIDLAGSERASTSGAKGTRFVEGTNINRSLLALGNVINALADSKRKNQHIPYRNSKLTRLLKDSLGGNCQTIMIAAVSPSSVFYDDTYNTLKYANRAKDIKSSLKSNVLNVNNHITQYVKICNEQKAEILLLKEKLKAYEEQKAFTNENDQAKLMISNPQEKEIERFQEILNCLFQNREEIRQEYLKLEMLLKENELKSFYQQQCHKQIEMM
T1 sequence (P02550 whole entry partner): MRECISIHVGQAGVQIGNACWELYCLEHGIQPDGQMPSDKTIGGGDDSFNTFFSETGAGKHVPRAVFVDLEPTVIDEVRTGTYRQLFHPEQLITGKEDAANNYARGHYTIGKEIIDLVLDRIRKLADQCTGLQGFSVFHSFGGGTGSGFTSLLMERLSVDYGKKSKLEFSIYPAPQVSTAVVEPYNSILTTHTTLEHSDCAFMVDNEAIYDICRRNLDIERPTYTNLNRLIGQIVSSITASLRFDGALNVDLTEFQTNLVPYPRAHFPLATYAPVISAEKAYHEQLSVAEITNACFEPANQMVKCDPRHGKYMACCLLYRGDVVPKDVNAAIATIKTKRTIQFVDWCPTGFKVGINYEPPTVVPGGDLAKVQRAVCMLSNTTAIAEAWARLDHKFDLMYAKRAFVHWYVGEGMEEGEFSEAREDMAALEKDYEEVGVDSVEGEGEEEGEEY
T1 sequence (P02554 whole entry partner): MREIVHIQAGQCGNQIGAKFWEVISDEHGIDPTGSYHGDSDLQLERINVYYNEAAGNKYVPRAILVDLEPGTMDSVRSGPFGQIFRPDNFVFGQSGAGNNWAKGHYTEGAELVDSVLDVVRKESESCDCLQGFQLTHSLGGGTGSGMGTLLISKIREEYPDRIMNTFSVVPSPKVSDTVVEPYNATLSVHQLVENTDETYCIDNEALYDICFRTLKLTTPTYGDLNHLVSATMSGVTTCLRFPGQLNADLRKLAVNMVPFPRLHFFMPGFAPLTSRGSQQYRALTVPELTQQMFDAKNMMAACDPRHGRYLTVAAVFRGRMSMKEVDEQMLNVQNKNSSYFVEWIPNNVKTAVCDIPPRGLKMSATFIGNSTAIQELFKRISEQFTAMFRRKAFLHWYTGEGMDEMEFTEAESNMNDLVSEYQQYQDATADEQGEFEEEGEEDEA

Compound | IC50
O=C(Nc1ccc(OCF)c(OCCC(F)(F)F)n1)c1cnc(NS(=O)(=O)CCO)cc1N1CCC2(CC1)CC2 [Compound 485] | ≤ 100 nM
O=C(Nc1ccc(OCF)c(N2CCC3(CC3)C2)c1)c1cnc(S(=O)(=O)NCCO)cc1N1CCC2(CC1)CC2 [Compound 470] | ≤ 100 nM
O=C(Nc1ccc(NS(=O)(=O)CCO)cc1N1CCC2(CC1)CC2)c1ccc(OCF)c(N2CCOCC2)n1 [Compound 556] | ≤ 100 nM
CSc1ccc(NC(=O)c2ccc(NS(=O)(=O)CCO)cc2N2CCC3(CC2)CC3)cc1OCCC(F)(F)F [Compound 581] | ≤ 100 nM
CC(C)(CO)Nc1cc(NC(=O)c2ccc(NS(=O)(=O)CCO)cc2N2CCC3(CC2)CC3)ccc1[N+](=O)[O-] [Compound 11] | ≤ 100 nM
C[C@@H]1CN(c2nc(NC(=O)c3ccc(S(=O)(=O)NCCO)cc3N3CCC4(CC3)CC4)ccc2OCF)CCO1 [Compound 434] | ≤ 100 nM
C[C@H](CO)NS(=O)(=O)c1cc(N2CCC3(CC2)CC3)c(C(=O)Nc2ccc([N+](=O)[O-])c(N3CCC(F)(F)CC3)n2)cn1 [Compound 158] | ≤ 100 nM
COc1ccc(C(=O)Nc2ccc(NS(=O)(=O)CCO)cc2N2CCC3(CC2)CC3)nc1NC(C)(C)CO [Compound 331] | ≤ 100 nM
C[C@@H]1CN(c2cc(NC(=O)c3cnc(S(=O)(=O)N[C@@H](C)CO)cc3N3CCC4(CC3)CC4)ccc2OCF)CCO1 [Compound 479] | ≤ 100 nM
COc1ccc(C(=O)Nc2ccc(NS(=O)(=O)[C@H](C)CO)cc2N2CCC3(CC2)CC3)nc1N1CCO[C@H](C)C1 [Compound 336] | ≤ 100 nM
C[C@H](CO)NS(=O)(=O)c1ccc(NC(=O)c2ccc(OCF)c(N3CCO[C@H](C)C3)n2)c(N2CCC3(CC2)CC3)c1 [Compound 576] | 100 to 500 nM
O=C(Nc1ccc([N+](=O)[O-])c(N2CCC(F)CC2)c1)c1cnc(S(=O)(=O)NCCO)cc1N1CCC2(CC1)CC2 [Compound 121] | ≤ 100 nM
C[C@H](CO)NS(=O)(=O)c1ccc(NC(=O)c2ccc([N+](=O)[O-])c(N3CCC(F)(F)CC3)n2)c(N2CCC3(CC2)CC3)c1 [Compound 190] | 100 to 500 nM
O=C(Nc1ccc([N+](=O)[O-])c(N2CCC3(CC3)C2)c1)c1cnc(NS(=O)(=O)CCO)cc1N1CCC2(CC1)CC2 [Compound 102] | ≤ 100 nM
O=C(Nc1ccc(S(=O)(=O)NCCO)cc1N1CCC2(CC1)CC2)c1ccc([N+](=O)[O-])c(N2CC(F)(F)C2)c1 [Compound 52] | 100 to 500 nM
C[C@H]1CN(c2nc(C(=O)Nc3ccc(NS(=O)(=O)CCO)cc3N3CCC4(CC3)CC4)ccc2OCF)CCO1 [Compound 547] | ≤ 100 nM
C[C@@H](CO)NS(=O)(=O)c1ccc(NC(=O)c2ccc([N+](=O)[O-])c(N3CCC(F)(F)CC3)c2)c(N2CCC3(CC2)CC3)c1 [Compound 61] | 100 to 500 nM
O=C(Nc1ccc(S(=O)(=O)NCCO)cc1N1CCC2(CC1)CC2)c1ccc(OCF)c(N2CCOCC2)n1 [Compound 572] | 100 to 500 nM
O=C(Nc1ccc(OCF)c(N2CCOCC2)c1)c1ccc(S(=O)(=O)NCCO)cc1N1CCC2(CC1)CC2 [Compound 412] | ≤ 100 nM
CSc1ccc(NC(=O)c2ccc(NS(=O)(=O)CCO)cc2N2CCC3(CC2)CC3)cc1OC1CCC1 [Compound 583] | ≤ 100 nM
O=C(Nc1ccc(NS(=O)(=O)CCO)cc1N1CCC2(CC1)CC2)c1ccc(OCF)c(N2CCC(F)(F)CC2)n1 [Compound 545] | ≤ 100 nM

Compound | IC50
C[C@H](CO)S(=O)(=O)Nc1cc(N2CCC3(CC2)CC3)c(C(=O)Nc2ccc(OCF)c(N3CCC(F)(F)CC3)n2)cn1 [Compound 494] | ≤ 100 nM
CSc1ccc(NC(=O)c2cnc(NS(=O)(=O)CCO)cc2N2CCC3(CC2)CC3)nc1N1CCO[C@H](C)C1 [Compound 626] | ≤ 100 nM
COc1ccc(NC(=O)c2ccc(NS(=O)(=O)CCO)cc2N2CCC3(CC2)CC3)nc1N1CCOCC1 [Compound 268] | ≤ 100 nM
CSc1ccc(NC(=O)c2cnc(NS(=O)(=O)[C@@H](C)CO)cc2N2CCC3(CC2)CC3)nc1N1CCC(F)(F)CC1 [Compound 637] | ≤ 100 nM
O=C(Nc1cnc(S(=O)(=O)NCCO)cc1N1CCC2(CC1)CC2)c1ccc([N+](=O)[O-])c(N2CCC(F)(F)CC2)n1 [Compound 241] | 100 to 500 nM
COc1ccc(C(=O)Nc2cnc(NS(=O)(=O)[C@@H](C)CO)cc2N2CCC3(CC2)CC3)nc1N1CCO[C@H](C)C1 [Compound 367] | ≤ 100 nM
O=C(Nc1ccc(OCF)c(N2CCC(F)CC2)c1)c1cnc(S(=O)(=O)NCCO)cc1N1CCC2(CC1)CC2 [Compound 473] | ≤ 100 nM
CSc1ccc(NC(=O)c2ccc(NS(=O)(=O)CCO)cc2N2CCC3(CC2)CC3)nc1NC(C)(C)CO [Compound 603] | ≤ 100 nM
COc1ccc(C(=O)Nc2cnc(NS(=O)(=O)CCO)cc2N2CCC3(CC2)CC3)nc1N1CCC(C)(F)C1 (centres unmarked) [Compound 360] | ≤ 100 nM
O=C(Nc1ccc(NS(=O)(=O)CCO)cc1N1CCC2(CC1)CC2)c1ccc([N+](=O)[O-])c(N2CCOCC2)c1 [Compound 44] | ≤ 100 nM
O=C(Nc1ccc(S(=O)(=O)NCCO)cc1N1CCC2(CC1)CC2)c1ccc(OCF)c(N2CCC(F)CC2)n1 [Compound 569] | 100 to 500 nM
C[C@@H]1CN(c2nc(NC(=O)c3ccc(NS(=O)(=O)[C@@H](C)CO)cc3N3CCC4(CC3)CC4)ccc2[N+](=O)[O-])CCO1 [Compound 79] | ≤ 100 nM
O=C(Nc1cnc(NS(=O)(=O)CCO)cc1N1CCC2(CC1)CC2)c1ccc([N+](=O)[O-])c(N2CCC(F)CC2)n1 [Compound 233] | ≤ 100 nM
C[C@@H]1CN(c2nc(C(=O)Nc3ccc(NS(=O)(=O)[C@H](C)CO)cc3N3CCC4(CC3)CC4)ccc2[N+](=O)[O-])CCO1 [Compound 176] | ≤ 100 nM
COc1ccc(NC(=O)c2cnc(S(=O)(=O)N[C@@H](C)CO)cc2N2CCC3(CC2)CC3)nc1N1CCC(F)(F)CC1 [Compound 317] | ≤ 100 nM
C[C@@H]1CN(c2nc(C(=O)Nc3ccc(S(=O)(=O)N[C@@H](C)CO)cc3N3CCC4(CC3)CC4)ccc2[N+](=O)[O-])CCO1 [Compound 191] | 100 to 500 nM
C[C@@H](CO)NS(=O)(=O)c1ccc(NC(=O)c2ccc(OCF)c(N3CCC(F)(F)CC3)n2)c(N2CCC3(CC2)CC3)c1 [Compound 573] | 100 to 500 nM
COc1ccc(C(=O)Nc2cnc(S(=O)(=O)NCCO)cc2N2CCC3(CC2)CC3)nc1N1CC2CC2C1 (centres unmarked) [Compound 378] | ≤ 100 nM
COc1ccc(NC(=O)c2ccc(S(=O)(=O)NCCO)cc2N2CCC3(CC2)CC3)nc1N1CC(F)(F)C1 [Compound 276] | ≤ 100 nM
CSc1ccc(NC(=O)c2cnc(NS(=O)(=O)CCO)cc2N2CCC3(CC2)CC3)cc1N1CCO[C@@H](C)C1 [Compound 611] | ≤ 100 nM
O=C(Nc1cnc(S(=O)(=O)NCCO)cc1N1CCC2(CC1)CC2)c1ccc([N+](=O)[O-])c(N2CCOCC2)c1 [Compound 220] | 100 to 500 nM

Compound | IC50
CSc1ccc(NC(=O)c2cnc(NS(=O)(=O)CCO)cc2N2CCC3(CC2)CC3)nc1OCCC(F)(F)F [Compound 629] | ≤ 100 nM
C[C@H]1CN(c2cc(NC(=O)c3cnc(NS(=O)(=O)CCO)cc3N3CCC4(CC3)CC4)ccc2[N+](=O)[O-])CCO1 [Compound 99] | ≤ 100 nM
C[C@H](CO)NS(=O)(=O)c1cc(N2CCC3(CC2)CC3)c(C(=O)Nc2ccc([N+](=O)[O-])c(N3CCO[C@H](C)C3)c2)cn1 [Compound 128] | ≤ 100 nM
COc1ccc(C(=O)Nc2cnc(NS(=O)(=O)CCO)cc2N2CCC3(CC2)CC3)nc1N1CCO[C@H](C)C1 [Compound 354] | ≤ 100 nM
CC1(F)CCN(c2nc(NC(=O)c3cnc(NS(=O)(=O)CCO)cc3N3CCC4(CC3)CC4)ccc2[N+](=O)[O-])C1 (centres unmarked) [Compound 136] | ≤ 100 nM
O=C(Nc1ccc(OCF)c(OCCC(F)(F)F)c1)c1cnc(S(=O)(=O)NCCO)cc1N1CCC2(CC1)CC2 [Compound 469] | ≤ 100 nM
C[C@@H]1CN(c2cc(NC(=O)c3cnc(S(=O)(=O)N[C@@H](C)CO)cc3N3CCC4(CC3)CC4)ccc2[N+](=O)[O-])CCO1 [Compound 127] | ≤ 100 nM
COc1ccc(NC(=O)c2cnc(NS(=O)(=O)CCO)cc2N2CCC3(CC2)CC3)nc1N1CCOCC1 [Compound 300] | ≤ 100 nM
CC1(F)CCN(c2cc(NC(=O)c3cnc(NS(=O)(=O)CCO)cc3N3CCC4(CC3)CC4)ccc2OCF)C1 (centres unmarked) [Compound 456] | ≤ 100 nM
C[C@@H]1CN(c2nc(C(=O)Nc3ccc(S(=O)(=O)NCCO)cc3N3CCC4(CC3)CC4)ccc2OCF)CCO1 [Compound 562] | 100 to 500 nM
C[C@H](CO)NS(=O)(=O)c1cc(N2CCC3(CC2)CC3)c(C(=O)Nc2ccc(OCF)c(N3CCO[C@H](C)C3)c2)cn1 [Compound 480] | ≤ 100 nM
C[C@@H](CO)S(=O)(=O)Nc1ccc(NC(=O)c2ccc(OCF)c(N3CCC(F)(F)CC3)n2)c(N2CCC3(CC2)CC3)c1 [Compound 557] | ≤ 100 nM
O=C(Nc1cnc(NS(=O)(=O)CCO)cc1N1CCC2(CC1)CC2)c1ccc([N+](=O)[O-])c(N2CC3CC3C2)n1 (centres unmarked) [Compound 234] | ≤ 100 nM
C[C@@H](CO)S(=O)(=O)Nc1ccc(NC(=O)c2ccc([N+](=O)[O-])c(N3CCC(F)(F)CC3)c2)c(N2CCC3(CC2)CC3)c1 [Compound 45] | 100 to 500 nM
C[C@@H](CO)S(=O)(=O)Nc1ccc(C(=O)Nc2ccc([N+](=O)[O-])c(N3CCC(F)(F)CC3)c2)c(N2CCC3(CC2)CC3)c1 [Compound 13] | ≤ 100 nM
C[C@H](CO)NS(=O)(=O)c1cc(N2CCC3(CC2)CC3)c(C(=O)Nc2ccc(OCF)c(N3CCO[C@H](C)C3)n2)cn1 [Compound 512] | ≤ 100 nM
CSc1ccc(NC(=O)c2ccc(NS(=O)(=O)[C@@H](C)CO)cc2N2CCC3(CC2)CC3)nc1N1CCC(F)(F)CC1 [Compound 605] | ≤ 100 nM
O=C(Nc1ccc(NS(=O)(=O)CCO)cc1N1CCC2(CC1)CC2)c1ccc(OCF)c(N2CCC3(CC3)C2)c1 [Compound 518] | ≤ 100 nM
O=C(Nc1ccc(OCF)c(N2CC(F)(F)C2)c1)c1ccc(NS(=O)(=O)CCO)cc1N1CCC2(CC1)CC2 [Compound 388] | ≤ 100 nM
C[C@H]1CN(c2cc(NC(=O)c3ccc(S(=O)(=O)NCCO)cc3N3CCC4(CC3)CC4)ccc2[N+](=O)[O-])CCO1 [Compound 19] | ≤ 100 nM
